Reference: ChEMBL document CHEMBL1158405, “Identification of nobiletin, a polymethoxyflavonoid, as an enhancer of adiponectin secretion” (2009)
Active and inactive are the calls of the source. The rule behind the calls is not given here.

Columns and labels:
ST-13 [1] = experiment: Induction of adiponectin secretion in mouse ST-13 cells after 11 days by ELISA; assay type: functional, cell-based
ST-13 [2] = experiment: Induction of preadipocyte differentiation in mouse ST-13 cells assessed as lipid accumulation at 5 uM within 11 days by oil red-staining relative to control; assay type: functional, cell-based
ST-13 [3] = experiment: Induction of adiponectin protein secretion in mouse ST-13 cells assessed as adiponectin mRNA level after 11 days by semi-quantitative RT-PCR; assay type: functional, cell-based
[4] = biological target: T1, Peroxisome proliferator-activated receptor gamma (Homo sapiens) (UniProt P37231); experiment: Agonist activity at Gal4-fused human PPARgamma expressed in african green monkey COS1 cells at 30 uM by luciferase reporter gene assay; assay type: functional, cell-based; details: COS-1
T1 sequence (whole entry): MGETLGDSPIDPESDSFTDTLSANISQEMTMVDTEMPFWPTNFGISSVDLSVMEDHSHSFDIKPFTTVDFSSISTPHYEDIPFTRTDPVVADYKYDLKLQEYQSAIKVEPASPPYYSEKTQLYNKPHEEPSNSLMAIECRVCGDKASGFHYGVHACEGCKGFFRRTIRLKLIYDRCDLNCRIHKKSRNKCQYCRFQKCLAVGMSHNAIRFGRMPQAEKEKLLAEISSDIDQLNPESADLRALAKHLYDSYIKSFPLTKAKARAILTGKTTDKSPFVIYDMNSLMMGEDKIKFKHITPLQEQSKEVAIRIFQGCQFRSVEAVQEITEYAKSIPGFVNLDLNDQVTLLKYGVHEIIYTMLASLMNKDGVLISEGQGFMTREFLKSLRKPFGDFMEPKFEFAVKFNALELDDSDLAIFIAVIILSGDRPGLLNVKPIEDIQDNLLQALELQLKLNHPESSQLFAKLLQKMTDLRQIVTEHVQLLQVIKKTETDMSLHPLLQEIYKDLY

ST-13 [5] = experiment: Induction of adipocyte differentiation in mouse ST-13 cells assessed as stimulation of adipocyte P2 mRNA expression at 0.1 to 30 uM within 11 days by semi-quantitative RT-PCR; assay type: functional, cell-based
ST-13 [6] = experiment: Induction of adipocyte differentiation in mouse ST-13 cells assessed as increase in PPARgamma2 mRNA level after 11 days by semi-quantitative RT-PCR relative to control; assay type: functional, cell-based
ST-13 [7] = experiment: Induction of preadipocyte differentiation in mouse ST-13 cells assessed as lipid accumulation at 10 uM within 11 days by oil red-staining relative to control; assay type: functional, cell-based
ST-13 [8] = experiment: Induction of adipocyte differentiation in mouse ST-13 cells assessed as stimulation of adipsin mRNA expression at 0.1 to 30 uM within 11 days by semi-quantitative RT-PCR; assay type: functional, cell-based
[9] = Induction of adiponectin secretion in mouse ST-13 cells at 10 uM after 11 days by ELISA relative to control; assay type: functional
ST-13 [10] = experiment: Induction of preadipocyte differentiation in mouse ST-13 cells assessed as triglyceride accumulation after 11 days by Fletcher's method; assay type: functional, cell-based

Activity [4] | Structure (SMILES) | Activity (ST-13 [1]) | Activity (ST-13 [2]) | Activity (ST-13 [3]) | Activity (ST-13 [5]) | Activity (ST-13 [6]) | Activity (ST-13 [7]) | Activity (ST-13 [8]) | Activity [9] [%] | Activity (ST-13 [10])
 | COc1ccc(-c2cc(=O)c3c(OC)cc(OC)c(OC)c3o2)cc1 | Active |  |  |  |  |  |  |  | 
 | Cc1c(C)c2c(c(C)c1O)CCC(C)(COc1ccc(CC3SC(=O)NC3=O)cc1)O2 (stereo unspecified) |  | Active |  |  |  |  |  |  | 
inactive | COc1ccc(-c2cc(=O)c3c(OC)c(OC)c(OC)c(OC)c3o2)cc1OC [NOBILETIN] | Dose-dependent effect |  | Dose-dependent effect | Active | Active | Active | Active | 340 | Dose-dependent effect
